Tests used:
R/R-PTCL = details: cited from earlier work
CFU-GM assay = type: cell-based; details: human, human bone marrow mononuclear cells
SCLC = details: second-line treatment, patients with SCLC; cited from earlier work

Structure (SMILES) | progression-free survival compared to investigator-selected single-agent comparators (R/R-PTCL) | IC90 (CFU-GM assay) [nM] | overall response rate (SCLC) [%]
COc1cc(Nc2ncc3c(n2)-c2ccc(Cl)cc2C(c2c(F)cccc2OC)=NC3)ccc1C(=O)O [Alisertib] | failed to improve the progression-free survival | 252 | 
COc1ccc2[nH]c3c(c2c1)CCN[C@]31CS[C@@H]2c3c(OC(C)=O)c(C)c4c(c3[C@H](COC1=O)N1[C@@H]2[C@H]2c3c(cc(C)c(OC)c3O)C[C@@H]([C@@H]1O)N2C)OCO4 [lurbinectedin] |  |  | 35.2
